How the values were obtained:
Test in all cases: relative viability (nuclei count vs DMSO), 5 days (fraction); higher = more cells survive
[1] = compound: C1=CC=C(C(=C1)C2=CC=C(C=C2)C3=CSC4=C3C(=C(C(=O)N4)C#N)O)O
Method in brief: (§1)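 For viability, nuclei in each treated well were divided by nuclei in vehicle wells and the median across plates was taken. Lung cancer cell lines in 1536-well plates were pinned with five library-drug doses (not always all listed) spaced by √10, cultured 5 days without medium change, and imaged at 4× after Hoechst staining, with plates passing only at control CV below 25% and at least one doubling.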

[2] = compound: CC1=CN2C(=O)C=C(N=C2C(=C1)C(C)NC3=CC=CC=C3)N4CCOCC4 [TGX 221]
Method in brief: as §1

[3] = compound: O=C(CCCCCCNC(=O)c1cnc(N(c2ccccc2)c2ccccc2)nc1)NO [Ricolinostat]
Method in brief: as §1

[4] = compound: CC1=CN2C(=O)C=C(N=C2C(=C1)C(C)NC3=CC=CC=C3)N4CCOCC4 [TGX 221] + Cc1nc(Nc2ncc(C(=O)Nc3c(C)cccc3Cl)s2)cc(N2CCN(CCO)CC2)n1 [Dasatinib] (partner 0.075 µM)
Method in brief: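 Cells from lung cancer lines were seeded into 1536-well plates and, one day later, dosed by pin tool. Treatments were either a single drug or a fixed dose of an anchor drug with five library-drug doses (not always all listed) in √10 steps. After 5 days, nuclei were stained in a one-step fixation (final 0.05% Triton X-100, 1% formaldehyde, 1 ug/ml Hoechst) and counted on 4× images, and relative viability is the treated-to-vehicle nuclei ratio, as the median of duplicate plates.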

| Cell Line | relative viability ([1]; 0.08 µM) | relative viability ([1]; 0.253 µM) | relative viability ([1]; 0.8 µM) | relative viability ([1]; 2.53 µM) | relative viability ([1]; 8 µM) | relative viability ([2]; 0.08 µM) | relative viability ([2]; 0.253 µM) | relative viability ([2]; 0.8 µM) | relative viability ([2]; 2.53 µM) | relative viability ([2]; 8 µM) | relative viability ([3]; 0.08 µM) | relative viability ([3]; 0.253 µM) | relative viability ([3]; 0.8 µM) | relative viability ([3]; 2.53 µM) | relative viability ([4]; first compound 0.08 µM) | relative viability ([4]; first compound 0.253 µM) | relative viability ([4]; first compound 0.8 µM) | relative viability ([4]; first compound 2.53 µM) | relative viability ([4]; first compound 8 µM) |
| --- | --- | --- | --- | --- | --- | --- | --- | --- | --- | --- | --- | --- | --- | --- | --- | --- | --- | --- | --- |
| SW 900 | 0.81 | 1.22 | 0.809 | 0.773 | 0.56 | 0.839 | 0.938 | 0.742 | 0.608 | 0.601 | 0.591 | 0.832 | 0.647 | 0.74 | 0.461 | 0.444 | 0.383 | 0.39 | 0.254 |
| SW 1573 | 1.06 | 1.17 | 1.01 | 1.03 | 0.738 | 0.895 | 0.876 | 0.961 | 0.906 | 0.902 | 0.936 | 1.07 | 0.896 | 1.02 | 0.402 | 0.501 | 0.403 | 0.406 | 0.574 |
| SK-MES-1 | 1.01 | 1.06 | 1.01 | 1.04 | 0.819 | 1.01 | 0.958 | 0.941 | 0.75 | 0.67 | 0.824 | 0.979 | 0.983 | 0.979 | 0.315 | 0.275 | 0.305 | 0.223 | 0.162 |
| HCC-827 | 1.03 | 1.05 | 1.08 | 1.07 | 1.11 | 0.982 | 1.03 | 1.07 | 1.04 | 0.983 | 0.946 | 1.02 | 1.01 | 0.991 | 0.28 | 0.296 | 0.387 | 0.273 | 0.15 |
| EMC-BAC-2 | 0.957 | 0.897 | 0.876 | 0.927 | 0.893 | 0.958 | 0.926 | 0.908 | 0.977 | 0.913 | 0.887 | 0.93 | 0.83 | 0.484 | 0.279 | 0.306 | 0.321 | 0.315 | 0.351 |
| NCI-H2023 | 0.996 | 1.04 | 1.02 | 1.01 | 0.722 | 0.901 | 0.89 | 0.927 | 0.889 | 0.845 | 0.752 | 1.01 | 0.931 | 0.821 | 0.481 | 0.481 | 0.592 | 0.537 | 0.407 |
| NCI-H1993 | 0.892 | 1.17 | 0.897 | 0.87 | 0.83 | 0.878 | 0.762 | 0.886 | 0.681 | 0.877 | 0.726 | 1 | 0.999 | 1.04 | 0.504 | 0.634 | 0.557 | 0.541 | 0.572 |
| NCI-H522 | 0.889 | 0.962 | 1.13 | 0.966 | 0.966 | 0.909 | 0.795 | 1.17 | 0.927 | 1.01 | 0.997 | 0.996 | 0.928 | 0.915 | 0.834 | 0.81 | 0.851 | 0.843 | 0.826 |
| COR-L 105 | 0.851 | 0.96 | 0.96 | 0.708 | 0.903 | 1.01 | 0.875 | 0.859 | 0.944 | 0.823 | 0.775 | 0.92 | 0.837 | 1.09 | 0.286 | 0.252 | 0.264 | 0.406 | 0.23 |
| NCI-H596 | 0.777 | 1.22 | 1.05 | 0.98 | 0.841 | 1.03 | 0.953 | 1.02 | 0.94 | 0.997 | 0.999 | 1.1 | 0.987 | 0.851 | 0.593 | 0.531 | 0.585 | 0.522 | 0.563 |
| LK-2 | 0.724 | 0.922 | 1.11 | 0.918 | 0.71 | 0.986 | 0.878 | 0.914 | 0.996 | 1.1 | 0.967 | 0.999 | 1 | 0.899 | 0.242 | 0.293 | 0.312 | 0.298 | 0.265 |
| NCI-H650 | 0.85 | 1.04 | 0.835 | 1.01 | 0.877 | 0.873 | 0.964 | 0.853 | 0.867 | 0.889 | 0.769 | 0.969 | 0.874 | 0.696 | 0.44 | 0.402 | 0.424 | 0.393 | 0.429 |
| NCI-H1623 | 1.04 | 1.1 | 0.927 | 1.04 | 0.774 | 1.04 | 0.863 | 0.949 | 0.82 | 0.991 | 0.933 | 0.972 | 1.12 | 0.889 | 0.538 | 0.564 | 0.599 | 0.541 | 0.536 |
| NCI-H520 | 0.808 | 0.901 | 1.07 | 1.04 | 0.777 | 0.809 | 0.797 | 0.741 | 0.692 | 0.656 |  | 1.05 | 1.01 | 0.861 | 0.215 | 0.202 | 0.156 | 0.16 | 0.159 |
| ABC-1 | 0.854 | 0.866 | 1.01 | 0.874 | 0.881 | 0.827 | 0.924 | 0.979 | 1.02 | 0.922 | 1 | 0.996 | 0.846 | 0.88 | 0.531 | 0.569 | 0.682 | 0.472 | 0.577 |
| NCI-H322M | 0.866 | 0.918 | 0.95 | 0.949 | 0.96 | 0.876 | 0.875 | 0.904 | 0.801 | 0.841 |  | 0.964 | 0.958 | 0.923 | 0.231 | 0.242 | 0.244 | 0.247 | 0.224 |
| HCC-78 | 0.85 | 1.23 | 1.15 | 0.966 | 0.832 | 0.769 | 0.856 | 0.785 | 0.722 | 0.76 |  | 1.03 | 0.8 | 0.637 | 0.405 | 0.324 | 0.231 | 0.235 | 0.246 |

Reference: the supplement of paper PMC10307832
